Experimental data reported in patent US11406649B2, “Treatment of upper aerodigestive tract disorders and cough” (IVIEW THERAPEUTICS, INC., priority 2018, dated 2022).
In brackets after ≈: the same amount, converted by molar mass.

What was measured:
[1] = Water solubility of 1-dialkylphosphorylalkanes; format: physicochemical; details: water
Description: The DIPA compounds are colorless liquids with a density less than water. These structures differ from those described by Rowsell and Spring U.S. Pat. No. 4,070,496 because '496 structures have their “head” (phosphine oxide group) covered by larger, more lipophilic groups. […] The applicant synthesized these analogs (which are achiral, by contrast to the structures of '496 which are >95% chiral). […] This increased water-solublility is striking (Table 3). […] The DIPA analogs are now mobile in the extracellular fluids and permeate between cells to access nerve endings in the stratum basale.

[2] = test system: Oral Cavity and Pharynx; test: Sensory qualities of compounds in syrup applied to base of tongue of volunteers; format: in vivo, human; details: for duration of unpleasant tastes: metallic, organic solvent-like, harsh
Experimental: The DIPA compounds was 5 mg/mL in cherry-flavored syrup in a volume of 0.8 mL per dose. The sensory effect were recorded every 5 min for 1 hr.
Tests were on four volunteers, with 3 to 5 trials per substance. Compounds were prepared in cherry-flavored syrup at 5 mg/mL and administered ˜0.8 mL per dose with a 2 mL plastic vial to the base of the tongue. The subjects asked to rate the sensations for cooling intensity, cold discomfort and adverse taste.
The concentration of the DIPA compounds was 5 mg/mL in cherry-flavored syrup administered in a volume of 0.8 mL per dose. The sensory effect were recorded every 5 min for 1 hr.

[3] = target: cloned hTRPM8 channel (Homo sapiens (Human), UniProt Q7Z2W7); test: TRPM8 agonist activity, Fluo-8 calcium FLIPR assay (ChanTest); format: cell-based; details: for Relative Potency to L-menthol: L-menthol = 1.0; for TRPM8 Relative Potency: Table 8, DIPA-1-7 = 1; for TRPM8 bioactivity: structural modifications
Chain of cloned hTRPM8 channel (Q7Z2W7 whole entry): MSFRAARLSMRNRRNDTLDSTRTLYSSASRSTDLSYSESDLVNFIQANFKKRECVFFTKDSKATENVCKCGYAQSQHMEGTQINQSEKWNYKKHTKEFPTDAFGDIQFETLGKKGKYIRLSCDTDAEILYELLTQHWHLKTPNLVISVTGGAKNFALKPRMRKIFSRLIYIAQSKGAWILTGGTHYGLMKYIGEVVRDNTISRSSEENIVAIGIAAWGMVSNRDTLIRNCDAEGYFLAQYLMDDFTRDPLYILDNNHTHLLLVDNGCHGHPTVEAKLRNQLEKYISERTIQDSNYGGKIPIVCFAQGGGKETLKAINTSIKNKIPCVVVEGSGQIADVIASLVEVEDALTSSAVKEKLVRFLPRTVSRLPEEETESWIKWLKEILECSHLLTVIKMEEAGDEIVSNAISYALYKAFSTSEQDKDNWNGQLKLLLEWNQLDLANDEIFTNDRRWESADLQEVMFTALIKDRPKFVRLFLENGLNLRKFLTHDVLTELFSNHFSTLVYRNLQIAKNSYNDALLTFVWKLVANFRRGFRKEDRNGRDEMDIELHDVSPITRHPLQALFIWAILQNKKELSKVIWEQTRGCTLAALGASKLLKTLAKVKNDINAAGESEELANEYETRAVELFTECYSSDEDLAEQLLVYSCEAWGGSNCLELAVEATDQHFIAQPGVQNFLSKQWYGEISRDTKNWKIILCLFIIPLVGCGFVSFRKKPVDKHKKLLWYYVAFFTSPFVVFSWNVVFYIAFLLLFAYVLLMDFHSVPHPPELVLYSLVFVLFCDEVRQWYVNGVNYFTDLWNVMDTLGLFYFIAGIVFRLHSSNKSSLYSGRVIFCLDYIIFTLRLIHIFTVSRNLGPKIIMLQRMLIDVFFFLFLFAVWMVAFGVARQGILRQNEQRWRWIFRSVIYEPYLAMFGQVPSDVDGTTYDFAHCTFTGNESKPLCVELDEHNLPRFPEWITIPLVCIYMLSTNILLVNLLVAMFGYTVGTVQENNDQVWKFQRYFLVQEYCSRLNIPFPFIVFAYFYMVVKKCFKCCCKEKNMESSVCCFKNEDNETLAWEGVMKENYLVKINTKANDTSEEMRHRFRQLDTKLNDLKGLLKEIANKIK
Experimental: In the first set of data, the potency and in vitro effects of test compounds were evaluated on cloned hTRPM8 channel (encoded by the human TRPM8 gene, expressed in CHO cells) using a Fluo-8 calcium kit and a Fluorescence Imaging Plate Reader (FLIPR^TETRA™) instrument. […] Test solutions were in a HEPES-buffered saline, in 384-well plates, and placed into the FLIPR instrument (Molecular Devices Corporation, Union City, Calif., USA). […] The test cells were Chinese Hamster Ovary (CHO) cells stably transfected with human TRPM8 cDNAs. Concentration-response data were analyzed via FLIPR Control software) and fitted to a Hill equation for the EC50.

[4] = test system: acid-induced swallowing movements; test: Suppression of acid-induced swallowing movements in the anesthetized rat; format: in vivo; details: for EC50: anesthetized rat; for Relative Potency: suppression of acid-induced swallowing
Description: A principal endogenous irritant in the linings of the upper aerodigestive tract is hydrochloric acid. Acid stimulations of the mucosa of the pharynx will elicit reflex swallowing. […] In a rat animal model, solutions of organic acids such as acetic acid and citric acid were effective in eliciting swallowing [Kajii et al., Sour taste stimulation facilitates reflex swallowing from the pharynx and larynx in the rat Physiology & Behavior 77: 321-325, 2002]. These methods for measuring sensory responses to acid can be adapted for screening the activity of DIPA-1-9. An agent that stimulates swallowing or an agent that suppress the acid challenge may then have utility in relieving dysphagia or the discomfort of heartburn, respectively. Preliminary experiments were conducted at the Pavlov Institute of Physiology, St. Petersburg, Russia, using adult male Wistar rats (see Table 11) and Wei (US 0.2015/0111852 A1). Swallowing movements was identified as the electromyogram activity and could also be visualized as laryngeal movement. Work is in progress to get more results for DIPA-1-9.

[5] = test system: oropharynx and esophagus; test: Sensory events and cold discomfort of compounds on throat, chest and body; details: for icy cold / pain in throat: DIPA-1-9 up to 12 mg per unit
Description: The terms “icy cold” is used to describe this adverse event in the throat.
Most likely, the compound rapidly distributed and activated cold sensations in the eosophageal lining.

[6] = test system: rat skin; test: Skin irritation tests on rat skin; format: in vivo; design: key to Redness after 20 μL applied topically to skin (scale of 0 to +++): scale of 0 to +++; scale of 0 to +++; scale of 0 to +++; scale of 0 to +++; details: for Redness after 20 μL applied topically to skin (scale of 0 to +++): rat skin; for skin irritancy: undiluted form
[7] = test system: anesthetized rat; test: In vivo transdermal activity: shaking after topical application to abdominal skin of anesthetized rat; details: pure compound 20 μL on abdominal skin, counted 40 min
Experimental: Shaking frequency was counted for 40 min after topical application.
The importance of water solubility for permeation was further illustrated in studies on the abdominal skin of anesthetized rat. […] The pharmacokinetic determinants of bioactivity are precise. Thus, for the avoidance of cold discomfort, DIPA-1-9 has to reach the receptors in the stratum basale but not “over-stimulate”.

[8] = 5 mg/mL in cherry-flavored syrup, ~0.8 mL
[9] = 5 mg/mL in cherry-flavored syrup

For `CCCCCC[P@@](=O)(C(C)C)[C@@H](C)CC` [3,4-6, 1-(Isopropyl-sec-butyl)-phosphinoyl-hexane], the solubility [1] was 25 mg/mL (≈ 108 mM) and the “Adverse Taste” value [2, 8] was 0.
`CCCCCCC[P@@](=O)(C(C)C)[C@@H](C)CC` [3,4-7, 1-(Isopropyl-sec-butyl)-phosphinoyl-heptane] gave a solubility [1] of 20 mg/mL (≈ 81.2 mM).
In the case of `CCCCP(=O)(C(C)CC)C(C)CC` (centres unmarked) [DAPA-2-4, 1-Di(sec-butyl)-phosphinoyl-butane], the “Relative Potency to L-menthol” value [3] is reported as 0.3.
With `CCCCCP(=O)(C(C)CC)C(C)CC` (centres unmarked) [DAPA-2-5, 1-di-sec-butyl-phosphorylpentane] the solubility [1] was 22 mg/mL (≈ 94.7 mM) and the “Relative Potency to L-menthol” value [3] was 2.2.
For `CCCCCCP(=O)(C(C)CC)C(C)CC` (centres unmarked) [DAPA-2-6, 1-Di(sec-butyl)-phosphinoyl-hexane], the EC50 [4] was 1700 ± 700 µg/mL (≈ 6.9 mM), the “Relative Potency” value [4] was 0.05 and the solubility [1] was 8 mg/mL (≈ 32.5 mM). For the same compound, the “sensory effects” value [2, 9] was “cold, icy cold, and adverse tastes”, the Sensation [2, 8] was “icy cold” and the “duration of unpleasant tastes” value [2] was “at least 15 min”. The “icy cold / pain in throat” value [5] was “icy cold”, the “Relative Potency to L-menthol” value [3] was 4.7 and the “TRPM8 Relative Potency” value [3] was 0.87. The “Redness after 20 μL applied topically to skin (scale of 0 to +++)” value [6] was “+” and the skin irritancy [6] was “skin irritants”.
With `CCCCCCCP(=O)(C(C)CC)C(C)CC` (centres unmarked) [DAPA-2-7, 1-Di(sec-butyl)-phosphinoyl-heptane] the EC50 [4] was 200 ± 20 µg/mL (≈ 0.768 mM), the “Comments: duration of effect” value ([4]; long-lasting) was “lasting; > ~30 min” and the “Relative Potency” value [4] was 0.45. For the same compound, the solubility [1] was under 3 mg/mL, the “sensory effects” value [2, 9] was “cold, icy cold, and adverse tastes” and the Sensation [2, 8] was “icy cold”. For the same compound, the “duration of unpleasant tastes” value [2] was “at least 15 min”, the “icy cold / pain in throat” value [5] was “icy cold” and the “systemic sensations of cold” value ([5]; higher oral doses (5 mg or more)) was “sensations of cold on other body surfaces”. The “Relative Potency to L-menthol” value [3] was 3.4, the “TRPM8 Relative Potency” value [3] was 0.64 and the “Redness after 20 μL applied topically to skin (scale of 0 to +++)” value [6] was “++”. For the same compound, the skin irritancy [6] was “skin irritants”.
With `CCCCCCCCP(=O)(C(C)CC)C(C)CC` (centres unmarked) [DAPA-2-8, 1-Di(sec-butyl)-phosphinoyl-octane] the EC50 [4] was 560 ± 170 µg/mL (≈ 2.04 mM), the “Relative Potency” value [4] was 0.16 and the solubility [1] was under 3 mg/mL. For the same compound, the Sensation [2, 8] was “cold”, the “duration of unpleasant tastes” value [2] was “at least 15 min” and the “Relative Potency to L-menthol” value [3] was 2.9. The “TRPM8 Relative Potency” value [3] was 0.71.
In the case of `CCCCCP(=O)(CC(C)C)CC(C)C` [DAPA-3-1, 1-di(iso-butyl) phosphinoyl-pentane], the “Relative Potency to L-menthol” value [3] is reported as 0.2 and the “TRPM8 bioactivity” value [3] is reported as “significant loss of bioactivity”.
In the case of `CCC(C)P(=O)(CCC(C)C)C(C)CC` (centres unmarked) [DAPA-3-2, 1-Di(sec-butyl) phosphinoyl-3-methyl-butane], the “Relative Potency to L-menthol” value [3] is reported as 0.9 and the “TRPM8 bioactivity” value [3] is reported as “significant loss of bioactivity”.
With `CCCCCP(=O)(C(C)C)C(C)C` [DIPA-1-5, 1-Di(isopropyl)-phosphinoyl-pentane] the “shaking after topical application” value [7] was “robust shaking” and the “Relative Potency to L-menthol” value [3] was 0.7.
In the case of `CCCCCCP(=O)(C(C)C)C(C)C` [DIPA-1-6, 1-Di(isopropyl)-phosphinoyl-hexane], the “shaking after topical application” value [7] is reported as “robust shaking”, the “icy cold / pain in throat” value [5] is reported as “icy cold” and the “Relative Potency to L-menthol” value [3] is reported as 1.6.
With `CCCCCCCCP(=O)(C(C)C)C(C)C` [DIPA-1-8, 1-Di(isopropyl)-phosphinoyl-octane] the solubility [1] was over 300 mg/mL, the “sensory effects” value [2, 9] was “cold, icy cold, and adverse tastes” and the Sensation [2, 8] was “cold”. For the same compound, the “duration of unpleasant tastes” value [2] was “at least 15 min”, the taste ([5]; oral cavity / tongue) was “this taste is present” and the “Relative Potency to L-menthol” value [3] was 5.4.
With `O=C1NC(c2cccc([N+](=O)[O-])c2)=CCN1c1ccccc1O` [icilin, reference compound] the sensory side-effects ([5]; menthol 5 mg in an orally dissolving tablet) was “did not produce cooling in the chest or the desired sensations on the throat”.
